Assay results reported in patent publication US20180170983A1, “New Use of Cell-Permeable Peptide Inhibitors of the JNK Signal Transduction Pathway for the Treatment of Mild Cognitive Impairment” (Xigen Inflammation Ltd., priority 2015, published 2018).
Square brackets hold non-standard residues; d marks the D form. Ends that are not written are not given here.

How the values were obtained:
βTC-3 cell cultures = assay: Cellular import of fluorescein-labeled TAT and TAT-IB1(s) peptides; assay type: cell-based; conditions: for entry of fluorescein labeled peptide into cells: labeled peptides (1 PM), BSA 1 μM, βTC-3 cells
Experimental: The ability of the L- and D-enantiomeric forms of TAT and TAT-IB(s) peptides (“TAT-IB peptides”) to enter cells was evaluated. L-TAT, D-TAT, L-TAT-IB1(s), and D-TAT-IB1(s) peptides [SEQ ID NOs: 5, 6, 9 and 12, respectively] were labeled by N-terminal addition of a glycine residue conjugated to fluorescein. Labeled peptides (1 PM) were added to βTC-3 cell cultures, which were maintained as described in Example 3. At predetermined times cells were washed with PBS and fixed for five minutes in ice-cold methanol-acetone (1:1) before being examined under a fluorescence microscope. Fluorescein-labeled BSA (1 μM, 12 moles/mole BSA) was used as a control.
Little to no signal was present at 48 hours.
Fluorescent signals from these all-D retro-inverso peptides were still very strong 1 week later, and the signal was only slightly diminished at 2 weeks post treatment.

βTC-3 cells = assay: IL-1β induced pancreatic beta-cell death, peptide addition; assay type: cell-based; conditions: one single addition of peptide 1 μM, two days of incubation with IL-1β
Experimental: Inhibition of IL-1β induced pancreatic beta-cell death by the D-TAT-IB1(s) peptide was analyzed. βTC-3 cells were incubated as described above for 30 minutes with one single addition of the indicated peptides (1 μM), then IL-1 (10 ng/ml) was added.
Apoptotic cells were then counted after two days of incubation with IL-1β by use of Propidium Iodide and Hoechst 33342 nuclear staining. A minimum of 1,000 cells were counted for each experiment. Standard Error of the Means (SEM) are indicated, n=5.
Long term inhibition of IL-1P induced cell-death by the D-TAT-IB1 peptide was also analyzed. βTC-3 cells were incubated as above for 30 minutes with one single addition of the indicated peptides (1 μM), then […] (10 ng/ml) was added, followed by addition of the cytokine every two days. Apoptotic cells were then counted after 15 days of incubation with IL-1 by use of propidium iodide and Hoechst 33342 nuclear staining. […] A minimum of 1.000 cells were counted for each experiment.

hippocampal CA1 neurons = conditions: in vivo, transient global ischemia; cited from earlier work
JNK = conditions: JBDs of IB1 and IB2 vs c-Jun or ATF2; cited from earlier work
[1] = test system: cultured chick embryonic dorsal root ganglion, sympathetic, ciliary and motor neurons; conditions: cited from earlier work
[2] = test system: primary embryonic cultures and differentiated PC12 cells; conditions: at dosages that inhibit activation of JNKs; after trophic withdrawal and in mice treated with 1-methyl-4-phenyl tetrahydropyridine; cited from earlier work

Compound: GRKKRRQRRRPPRPKRPTTLNLFPQVPRSQD [L-TAT-IB1(s)]
- entry of fluorescein labeled peptide into cells (βTC-3 cell cultures): efficiently and rapidly (less than five minutes) entered cells

Compound: CC(C)C[C@@H](NC(=O)[C@@H](Cc1ccccc1)NC(=O)[C@H]1CCCN1C(=O)[C@@H](CCC(N)=O)NC(=O)[C@H](NC(=O)[C@H]1CCCN1C(=O)[C@@H](CCCNC(=N)N)NC(=O)[C@@H](CO)NC(=O)[C@@H](CCC(N)=O)NC(=O)[C@H](N)CC(=O)O)C(C)C)C(=O)N[C@H](CC(N)=O)C(=O)N[C@H](CC(C)C)C(=O)N[C@@H](C(=O)N[C@@H](C(=O)N1CCC[C@@H]1C(=O)N[C@H](CCCNC(=N)N)C(=O)N[C@H](CCCCN)C(=O)N1CCC[C@@H]1C(=O)N[C@H](CCCNC(=N)N)C(=O)N1CCC[C@@H]1C(=O)N1CCC[C@@H]1C(=O)N[C@H](CCCNC(=N)N)C(=O)N[C@H](CCCNC(=N)N)C(=O)N[C@H](CCCNC(=N)N)C(=O)N[C@H](CCC(N)=O)C(=O)N[C@H](CCCNC(=N)N)C(=O)N[C@H](CCCNC(=N)N)C(=O)N[C@H](CCCCN)C(=O)N[C@H](CCCCN)C(=O)N[C@H](CCCNC(=N)N)C(=O)NCC(=O)O)[C@H](C)O)[C@H](C)O [XG-102]
- stability inside the cells (βTC-3 cell cultures): extremely stable inside the cells

Compound: TDQSRPVQPFLNLTTPRKPRYTDPPRRRQRRKKRG ([dT][dD][dQ][dS][dR][dP][dV][dQ][dP][dF][dL][dN][dL][dT][dT][dP][dR][dK][dP][dR][dY][dT][dD][dP][dP][dR][dR][dR][dQ][dR][dR][dK][dK][dR]G) [D-TAT-IB1]
- IL-1 induced apoptosis (βTC-3 cells): decreased IL-1 induced apoptosis to a similar extent as L-TAT-IB peptides

Compound: N#CC(c1ccnc(NCCc2cccnc2)n1)c1nc2ccccc2s1 (stereo not shown) [AS601245]
- protection against the delayed loss of hippocampal CA1 neurons (hippocampal CA1 neurons): provided significant protection

Compound: RRRQRRKKRG (D-amino acids; Description of sequence Peptide D-TAT (see Table 1); MUTAGEN (1)..(10) all amino acids are D-amino acids)
- stability inside the cells (βTC-3 cell cultures): extremely stable inside the cells

Compound: IPSPSVEEPHKHRPTTLRLTTLGAQDS (Description of sequence Peptide IB2-long (see Table 1))
- efficiency in binding JNK relative to c-Jun or ATF2 (JNK): approximately 100 fold

Compound: PGTGCGDTYRPKRPTTLNLFPQVPRSQDT (Description of sequence peptide IB1-long (see Table 1))
- efficiency in binding JNK relative to c-Jun or ATF2 (JNK): approximately 100 fold

Compound: CCSCc1ccc2c(c1)c1c3c(c4c5cc(CSCC)ccc5n5c4c1n2[C@H]1C[C@](O)(C(=O)OC)[C@]5(C)O1)CNC3=O [CEP-1347]
- long term-survival of neurons [1]: can promote long term-survival
- neuronal survival [2]: promotes neuronal survival

Compound: GRKKRRQRRR (Description of sequence Peptide L-TAT (see Table 1))
- entry of fluorescein labeled peptide into cells (βTC-3 cell cultures): efficiently and rapidly (less than five minutes) entered cells
